These results are taken from patent US8759334B2, “Compounds useful for the treatment of metabolic and inflammatory diseases” (Galapagos NV, priority 2011, dated 2014).

Structures are written as SMILES.

The target of this assay is T1, GPR43 (Homo sapiens, UniProt O15552).
T1 construct: expressed in transfected cells
T1 sequence (O15552 1-330): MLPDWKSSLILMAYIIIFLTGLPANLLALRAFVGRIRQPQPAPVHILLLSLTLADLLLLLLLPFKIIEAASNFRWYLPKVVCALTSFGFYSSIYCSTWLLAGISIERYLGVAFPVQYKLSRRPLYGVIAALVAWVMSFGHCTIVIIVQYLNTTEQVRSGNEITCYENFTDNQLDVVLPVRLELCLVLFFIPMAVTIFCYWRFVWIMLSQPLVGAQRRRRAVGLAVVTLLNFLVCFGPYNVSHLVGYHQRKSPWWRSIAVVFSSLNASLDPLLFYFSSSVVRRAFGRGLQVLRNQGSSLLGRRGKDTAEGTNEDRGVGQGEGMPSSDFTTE
As to the kind of experiment: Calcium mobilization assay with probenecid. It counts as cell-based. As to conditions: GPR43 stably expressing cells; triggered with sodium acetate at EC80; 2.5 mM probenecid; read-out: GPR43 assay with probenicid IC50. Summed up:
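[…] being added at rising concentrations to a GPR43 stable line. Before this, cells were dye-loaded (Calcium 4 with 2.5 mM probenecid) for 2 h at 37 °C after overnight plating.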
(In general: Calcium flux is commonly read through the fluorescence of an indicator in the cells.)

For the compound `COc1ccc(Cl)c(OC(=O)N2CCC2(C)C(=O)N(CCCC(=O)O)Cc2ccc(Cl)cc2)c1` (stereo not shown) [Compound 215, 4-(1-((2-chloro-5-methoxyphenoxy)carbonyl)-N-(4-chlorobenzyl)-2-methylazetidine-2-carboxamido)butanoic acid], the half-maximal inhibitory concentration (IC50) (usually the concentration needed to halve the response being measured) is more than 1000 nM.

For `CCC1(C(=O)N(CCCS(N)(=O)=O)Cc2ccc(Cl)cc2)CCN1C(=O)c1csc2ccccc12` (stereo not shown) [Compound 216, 1-(benzo[b]thiophene-3-carbonyl)-N-(4-chlorobenzyl)-2-ethyl-N-(3-sulfamoylpropyl)azetidine-2-carboxamide], the IC50 was 101 to 500 nM.

As to `CC(C)C1(C(=O)N(CCCS(N)(=O)=O)Cc2cccc(Cl)c2)CCN1C(=O)c1csc2ccccc12` (stereo not shown) [Compound 217, 1-(benzo[b]thiophene-3-carbonyl)-N-(3-chlorobenzyl)-2-isopropyl-N-(3-sulfamoylpropyl)azetidine-2-carboxamide], the 50% inhibitory concentration (IC50) lay in the range of 101 to 500 nM.

`COc1cccc(OC(=O)N2CCC2(C)C(=O)N(CCCC(=O)O)Cc2ccc(Cl)cc2)c1` (stereo not shown) [Compound 218, 4-(N-(4-chlorobenzyl)-1-((3-methoxyphenoxy)carbonyl)-2-methylazetidine-2-carboxamido)butanoic acid]: the IC50 fell in the range of 101 to 500 nM.

Take `O=C(O)CCCN(Cc1cccc(Cl)c1)C(=O)C1(Cc2ccc(F)cc2)CCN1C(=O)c1csc2ccccc12` (stereo not shown) [Compound 219, 4-(1-(benzo[b]thiophene-3-carbonyl)-N-(3-chlorobenzyl)-2-(4-fluorobenzyl)azetidine-2-carboxamido)butanoic acid]: the IC50 lay in the range of 101 to 500 nM.

With `Cc1cccc(CC2(C(=O)N(CCCC(=O)O)Cc3cccc(Cl)c3)CCN2C(=O)c2csc3ccccc23)c1` (stereo not shown) [Compound 220, 4-(1-(benzo[b]thiophene-3-carbonyl)-N-(3-chlorobenzyl)-2-(3-methylbenzyl)azetidine-2-carboxamido)butanoic acid], the IC50 was in the range of 501 to 1000 nM.

Turning to `COc1cccc(CC2(C(=O)N(CCCC(=O)O)Cc3cccc(Cl)c3)CCN2C(=O)c2csc3ccccc23)c1` (stereo not shown) [Compound 221, 4-(1-(benzo[b]thiophene-3-carbonyl)-N-(3-chlorobenzyl)-2-(3-methoxybenzyl)azetidine-2-carboxamido)butanoic acid], the IC50 lay in the range of 101 to 500 nM.

Consider `O=C(O)CCCN(Cc1cccc(Cl)c1)C(=O)C1(Cc2cccc(C(F)(F)F)c2)CCN1C(=O)c1csc2ccccc12` (stereo not shown) [Compound 222, 4-(1-(benzo[b]thiophene-3-carbonyl)-N-(3-chlorobenzyl)-2-(3-(trifluoromethyl)benzyl)azetidine-2-carboxamido)butanoic acid], for which the IC50 was more than 1000 nM.

Take `Cc1ccc(OC(=O)N2CCC2(C)C(=O)N(CCCC(=O)O)Cc2ccc(Cl)cc2)c(Cl)c1` (stereo not shown) [Compound 223, 4-(1-((2-chloro-4-methylphenoxy)carbonyl)-N-(4-chlorobenzyl)-2-methylazetidine-2-carboxamido)butanoic acid]: the IC50 was more than 1000 nM.

On to `COc1ccc(OC(=O)N2CCC2(C)C(=O)N(CCCC(=O)O)Cc2ccc(Cl)cc2)c(Cl)c1` (stereo not shown) [Compound 224, 4-(1-((2-chloro-4-methoxyphenoxy)carbonyl)-N-(4-chlorobenzyl)-2-methylazetidine-2-carboxamido)butanoic acid], for which the IC50 is more than 1000 nM.

Turning to `O=C(O)CCCN(Cc1cccc(Cl)c1)C(=O)C1(Cc2ccc(Cl)cc2)CCN1C(=O)c1csc2ccccc12` (stereo not shown) [Compound 225, 4-(1-(benzo[b]thiophene-3-carbonyl)-N-(3-chlorobenzyl)-2-(4-chlorobenzyl)azetidine-2-carboxamido)butanoic acid], the IC50 is 501 to 1000 nM.

With `CC1(C(=O)N(CCCC(=O)O)Cc2ccc(Cl)cc2)CCN1C(=O)Oc1ccc(C(F)(F)F)cc1` (stereo not shown) [Compound 226, 4-(N-(4-chlorobenzyl)-2-methyl-1-((4-(trifluoromethyl)phenoxy)carbonyl)azetidine-2-carboxamido)butanoic acid], the IC50 was more than 1000 nM.

Consider `CSc1ccc(OC(=O)N2CCC2(C)C(=O)N(CCCC(=O)O)Cc2ccc(Cl)cc2)cc1` (stereo not shown) [Compound 227, 4-(N-(4-chlorobenzyl)-2-methyl-1-((4-(methylthio)phenoxy)carbonyl)azetidine-2-carboxamido)butanoic acid], for which the IC50 was in the range of 501 to 1000 nM.

As to `CCC1(C(=O)N(CCCC(=O)NS(C)(=O)=O)Cc2cccc(Cl)c2)CCN1C(=O)c1csc2ccccc12` (stereo not shown) [Compound 228, 1-(benzo[b]thiophene-3-carbonyl)-N-(3-chlorobenzyl)-2-ethyl-N-(4-(methylsulfonamido)-4-oxobutyl)azetidine-2-carboxamide], the IC50 was in the range of 0.01 to 100 nM.

For the compound `C=CCC1(C(=O)N(CCCC(=O)NS(C)(=O)=O)Cc2cccc(Cl)c2)CCN1C(=O)c1csc2ccccc12` (stereo not shown) [Compound 229, 2-allyl-1-(benzo[b]thiophene-3-carbonyl)-N-(3-chlorobenzyl)-N-(4-(methylsulfonamido)-4-oxobutyl)azetidine-2-carboxamide], the IC50 was in the range of 0.01 to 100 nM.

Consider `CS(=O)(=O)NC(=O)CCCN(Cc1cccc(Cl)c1)C(=O)C1(Cc2ccccc2)CCN1C(=O)c1csc2ccccc12` (stereo not shown) [Compound 230, 1-(benzo[b]thiophene-3-carbonyl)-2-benzyl-N-(3-chlorobenzyl)-N-(4-(methylsulfonamido)-4-oxobutyl)azetidine-2-carboxamide], for which the IC50 lay in the range of 101 to 500 nM.

Consider `C[C@@H](c1cccc(Cl)c1)N(CCCC(=O)NS(C)(=O)=O)C(=O)[C@@]1(C)CCN1C(=O)c1csc2ccccc12` [Compound 231, (R)-1-(benzo[b]thiophene-3-carbonyl)-N-((S)-1-(3-chlorophenyl)ethyl)-2-methyl-N-(4-(methylsulfonamido)-4-oxobutyl)azetidine-2-carboxamide], for which the IC50 was 0.01 to 100 nM.

Turning to `CCCC1(C(=O)N(CCCC(=O)NS(C)(=O)=O)Cc2cccc(Cl)c2)CCN1C(=O)c1csc2ccccc12` (stereo not shown) [Compound 232, 1-(benzo[b]thiophene-3-carbonyl)-N-(3-chlorobenzyl)-N-(4-(methylsulfonamido)-4-oxobutyl)-2-propylazetidine-2-carboxamide], the 50% inhibitory concentration (IC50) was in the range of 101 to 500 nM.

For `CC(C)C1(C(=O)N(CCCC(=O)NS(C)(=O)=O)Cc2cccc(Cl)c2)CCN1C(=O)c1csc2ccccc12` (stereo not shown) [Compound 233, 1-(benzo[b]thiophene-3-carbonyl)-N-(3-chlorobenzyl)-2-isopropyl-N-(4-(methylsulfonamido)-4-oxobutyl)azetidine-2-carboxamide], the IC50 lay in the range of 101 to 500 nM.

For the compound `CC1(C(=O)N(CCCC(=O)NS(C)(=O)=O)c2ccc(Cl)cc2)CCN1C(=O)c1csc2ccccc12` (stereo not shown) [Compound 234, 1-(benzo[b]thiophene-3-carbonyl)-N-(4-chlorophenyl)-2-methyl-N-(4-(methylsulfonamido)-4-oxobutyl)azetidine-2-carboxamide], the IC50 is 0.01 to 100 nM.

Turning to `CC1(C(=O)N(CCCC(=O)O)Cc2ccc(Cl)cc2)CCN1C(=O)Oc1ccccc1Br` (stereo not shown) [Compound 235, 4-(1-((2-bromophenoxy)carbonyl)-N-(4-chlorobenzyl)-2-methylazetidine-2-carboxamido)butanoic acid], the IC50 is more than 1000 nM.

For the compound `CC1(C(=O)N(CCCC(=O)O)Cc2ccc(Cl)cc2)CCN1C(=O)Oc1cc(C(F)(F)F)ccc1Cl` (stereo not shown) [Compound 236, 4-(1-((2-chloro-5-(trifluoromethyl)phenoxy)carbonyl)-N-(4-chlorobenzyl)-2-methylazetidine-2-carboxamido)butanoic acid], the IC50 is more than 1000 nM.

Take `CC1(C(=O)N(CCCC(=O)O)Cc2ccc(Cl)cc2)CCN1C(=O)n1ccc2ccccc21` (stereo not shown) [Compound 237, 4-(N-(4-chlorobenzyl)-1-(1H-indole-1-carbonyl)-2-methylazetidine-2-carboxamido)butanoic acid]: the IC50 was more than 1000 nM.

`CC1(C(=O)N(CCCC(=O)O)Cc2ccc(Cl)cc2)CCN1C(=O)Oc1ccc(Cl)cc1Cl` (stereo not shown) [Compound 238, 4-(N-(4-chlorobenzyl)-1-((2,4-dichlorophenoxy)carbonyl)-2-methylazetidine-2-carboxamido)butanoic acid]: the IC50 was more than 1000 nM.

Consider `CC1(C(=O)N(CCCC(=O)O)Cc2ccc(Cl)cc2)CCN1C(=O)Oc1ccc(F)cc1Cl` (stereo not shown) [Compound 239, 4-(1-((2-chloro-4-fluorophenoxy)carbonyl)-N-(4-chlorobenzyl)-2-methylazetidine-2-carboxamido)butanoic acid], for which the IC50 is more than 1000 nM.

Take `CC1(C(=O)N(CCCC(=O)NS(C)(=O)=O)Cc2ccc(Cl)cc2)CCN1C(=O)c1csc2ccccc12` (stereo not shown) [Compound 240, 1-(benzo[b]thiophene-3-carbonyl)-N-(4-chlorobenzyl)-2-methyl-N-(4-(methylsulfonamido)-4-oxobutyl)azetidine-2-carboxamide]: the IC50 lay within 101 to 500 nM.

`CS(=O)(=O)NC(=O)CCCN(Cc1cccc(Cl)c1)C(=O)C1(Cc2ccc(F)cc2)CCN1C(=O)c1csc2ccccc12` (stereo not shown) [Compound 241, 1-(benzo[b]thiophene-3-carbonyl)-N-(3-chlorobenzyl)-2-(4-fluorobenzyl)-N-(4-(methylsulfonamido)-4-oxobutyl)azetidine-2-carboxamide]: the IC50 lay in the range of 501 to 1000 nM.

Regarding `COc1cccc(CC2(C(=O)N(CCCC(=O)NS(C)(=O)=O)Cc3cccc(Cl)c3)CCN2C(=O)c2csc3ccccc23)c1` (stereo not shown) [Compound 242, 1-(benzo[b]thiophene-3-carbonyl)-N-(3-chlorobenzyl)-2-(3-methoxybenzyl)-N-(4-(methylsulfonamido)-4-oxobutyl)azetidine-2-carboxamide], the IC50 was in the range of 501 to 1000 nM.
